Consider 24 molecules from ChEMBL document CHEMBL6115010, “Targeting glioma with heteroaromatic alkaloids: A review of potential therapeutics” (Bioorg Med Chem, 2025).

Values after ≈ are worked out from the molar mass of the structure shown.

Assay [1] concerns SF-268. The assay can be described thus: Antiproliferative activity against human SF-268 cells. Format: functional, cell-based.
Assay [2] in a line: Cytotoxicity against human CHG-5 cells assessed as reduction in cell viability incubated for 24 hrs by MTT assay. Type of assay: functional, cell-based. Conditions: CHG-5, 24 h.
Assay [3] can be described thus: Cytotoxicity against human SHG-44 cells assessed as reduction in cell viability incubated for 24 hrs by MTT assay. Format: functional, cell-based. Conditions: SHG-44, 24 h.
Assay [4] relates to U-251. The assay can be described thus: Cytotoxicity against human U-251MG cells assessed as reduction in cell viability incubated for 24 hrs by MTT assay. Type of assay: functional, cell-based. The following applies: U-251, 24 h. (Tetrazolium assays rely on reduction of a dye to a coloured formazan, in cell work by metabolically active cells.)
Assay [5] deals with CCF-STTG1. The assay can be described thus: Cytotoxicity against human CCF-STTG1 cells assessed as reduction in cell viability incubated for 24 hrs by MTT assay. Format: functional, cell-based. Conditions: CCF-STTG1, 24 h.
Another assay concerns SF-295. The assay can be described thus: Cytotoxicity against human SF-295 cells assessed as reduction in cell growth incubated for 96 hrs by MTT assay. Format: functional, cell-based. The following applies: SF-295, 96 h.
For a further assay, the system named is SH-SY5Y. The assay can be described thus: Cytotoxicity against human SH-SY5Y cells. Type of assay: functional, cell-based.
A short description of assay [6]: Cytotoxicity against human GSC-3 cells assessed as reduction in cell viability incubated for 72 hrs by MTS assay. Type of assay: functional, cell-based. Conditions: GSC-3, 72 h.
A further assay has as its system H4. The assay can be described thus: Antiproliferative activity against human H4 cells assessed as reduction in cell viability incubated for 72 hrs by Prestoblue-reagent based assay. The following applies: H4, 72 h. Format: functional.
The test system of assay [7] is CCF-STTG1. The assay can be described thus: Cytotoxicity against human CCF-STTG1 cells assessed as reduction in cell growth incubated for 24 hrs by MTT assay. Format: functional, cell-based. The following applies: CCF-STTG1, 24 h.
Assay [8] deals with CCF-STTG1. The assay can be described thus: Cytotoxicity against human CCF-STTG1 cells assessed as reduction in cell viability incubated for 48 hrs by MTT assay. Type of assay: functional, cell-based. Conditions: CCF-STTG1, 48 h.
Assay [9] in a line: Cytotoxicity against human CHG-5 cells assessed as reduction in cell viability incubated for 48 hrs by MTT assay. The following applies: CHG-5, 48 h. Type of assay: functional, cell-based.
Assay [10] is described as follows: Cytotoxicity against human SHG-44 cells assessed as reduction in cell viability incubated for 48 hrs by MTT assay. The following applies: SHG-44, 48 h. Format: functional, cell-based.
The subject of assay [11] is U-251. The assay can be described thus: Cytotoxicity against human U-251MG cells assessed as reduction in cell viability incubated for 48 hrs by MTT assay. Format: functional, cell-based. Conditions: U-251, 48 h.
In assay [12] the test system is SF-268. The assay can be described thus: Cytotoxicity against human SF-268 cells assessed as reduction in cell viability incubated for 72 hrs by SRB assay. Type of assay: functional, cell-based. Conditions: SF-268, 72 h. On the technique in general: The SRB assay estimates cell density from bound dye.
Assay [13] is described as follows: Cytotoxicity against rat ASK cells assessed as reduction in cell growth by SRB assay. Type of assay: functional. Conditions: read-out: ED50 (the source's name).

For orientation: IC50 means the concentration at which inhibition is half-maximal. `C[C@@H]1CC[C@H]2C(C)(C)[C@H](O)CC[C@]2(C)[C@@]12Cc1c(O)cc3c(c1O2)CNC3=O` showed an IC50 in the assay with SF-268 [1] of 67.2 µM.

As to `C/C=C1\C2C[C@H]3C4=Nc5ccccc5[C@]45C[C@@H](C2[C@H]5OC(C)=O)[N+]3([O-])[C@H]1C` (some centres undefined), the IC50 in [2] is 15.8 µM; in assay [3], 17.4 µM; in the assay on U-251 [4], 14.9 µM; in the assay on CCF-STTG1 [5], 16.7 µM.

As to `COc1cc2c(cc1OC)[C@H](O)[C@@H]1c3c(cc4c(c3-2)OCO4)CC[N@@+]1(C)[O-]`, the IC50 with SF-295 amounted to 1.62 µg/mL (≈ 4.36 µM).

In the assay on SH-SY5Y, `N#Cc1cnc2cccc(O)c2c1O` gave an IC50 of 62.6 µM.

For `COc1cc2c(c(Oc3ccc(C=O)cc3)c1OC)-c1c(OC)c(OC)cc3ccnc(c13)C2=O`, the concentration for half-maximal inhibition (IC50) in assay [6] was found to be 15.5 µg/mL (≈ 32.8 µM).

Regarding `c1ccc2c(c1)[nH]c1cnccc12` [NORHARMANE], in the assay on H4, the IC50 amounted to 49 µM.

`COc1cc2c(cc1O)C(=O)O[C@@H]1CC=C3CC[N+](C)([O-])[C@H]3[C@H]21` (some centres undefined): in the assay with CCF-STTG1 [7], the IC50 turned out to be 93 µM.

Take `COC(=O)N1CCc2cc(O)c(OC)c3c4c(cc1c23)C(=O)C=C(OC)C4=O`: the IC50 with CCF-STTG1 [8] is 9.2 µM; in [9], 10.8 µM; in assay [10] it was 10.8 µM; with U-251 [11] it was 11.3 µM.

As to `CC(=O)O[C@H]1C=C[C@]23c4cc5c(cc4[C@H](OC(C)=O)N(C[C@H]2O)[C@@H]3C1)OCO5`, the half-maximal inhibitory concentration (IC50) with CCF-STTG1 [8] amounted to 27.1 µM; in [9] it was 30.1 µM; in assay [10], 27.1 µM; in the assay with U-251 [11], 17.4 µM.

On to `Cc1cc2[nH]c(=O)c(=O)n(CC(O)C(O)C(O)CO)c2cc1C` (centres undefined), for which the IC50 in the assay on SH-SY5Y stood at 71.2 µM.

With `COc1cc2c(cc1O)C(=O)O[C@H]1[C@@H]2[C@H]2C(=C[C@@H]1O)CC[N+]2(C)[O-]` (some centres undefined), in the assay with CCF-STTG1 [7], the IC50 is 83.2 µM.

Take `COc1cc2c(c(Oc3ccc(C=O)cc3)c1OC)C[C@H]1c3c(c(OC)c(OC)c(OC)c3-2)CCN1C`: the IC50 in [6] is 14.5 µg/mL (≈ 28.7 µM).

Molecule `CC(C)=CC[C@]12C/C=C(/C)Oc3cccc(CO)c3/C(N)=C(/C(=O)C=C1C)C2=O` registered an IC50 with SF-268 [1] of 17.9 µM.

`Oc1cc2c3c(c1O)c1cc4c(cc1c[n+]3CC2)OCO4`: the IC50 in the assay with CCF-STTG1 [8] was determined as 10.3 µM; in [9], 10.2 µM; in assay [10], 9.4 µM; with U-251 [11], 11.8 µM.

Consider `CC/C=C(\C)[C@H](O)[C@H](C)/C=C(C)/C=C(\C)C/C(C)=C/Cc1nc(OC)c(OC)c(O)c1C`, for which, in the assay with SF-268 [12], the IC50 stood at 45.9 µM.

Consider `C[C@@H]1CC[C@H]2C(C)(C)[C@H](O)CC[C@]2(C)[C@@]12Cc1c(O)cc3c(c1O2)C(=O)NC3`, for which, in the assay with SF-268 [1], the IC50 was determined as 11.2 µM.

In the case of `[O-][N+]12CCc3cc(O)c(O)c(c31)-c1cc3c(cc1C2)OCO3` (single isomer, unassigned; (+)), the IC50 with U-251 [11] was 93.7 µM.

As for `C/C=C(\C)[C@H](O)[C@H](C)/C=C(C)/C=C(\C)C/C(C)=C/Cc1nc(OC)c(OC)c(OC)c1C`, in the assay on SF-268 [12], the IC50 turned out to be 10 µM.

In the assay on SH-SY5Y, `N#Cc1cnc2ccccc2c1O` registered an IC50 of 66.8 µM.

Take `COc1c(OC)c(OC)c2c3c(cc4ccccc42)NC(=O)c13` [PIPEROLACTAM C]: in assay [13], the EC50 is 12.8 µg/mL (≈ 41.3 µM).

Turning to `COc1cc2c(cc1OC)[C@H](O)[C@@H]1c3c(cc4c(c3-2)OCO4)CCN1C`, the IC50 in the assay with SF-295 was determined as 1.41 µg/mL (≈ 3.97 µM).

`O[C@H]1[C@H]2c3cc4c(cc3C=[N+]3CCC(=C[C@@H]1O)[C@H]23)OCO4`: the IC50 was 10.3 µM in the assay on CCF-STTG1 [8], 10.2 µM in assay [9], 9.4 µM in [10] and 11.8 µM in the assay on U-251 [11].

Take `COc1cc2c(c(Oc3ccc(C=O)cc3)c1OC)C[C@H]1c3c(cc(OC)c(OC)c3-2)CCN1C`: in assay [6], the IC50 came out at 19.2 µg/mL (≈ 40.5 µM).

On to `COc1cc2c(c(Oc3ccc(CO)cc3)c1OC)C[C@H]1c3c(cc(OC)c(OC)c3-2)CCN1C`, for which the IC50 in [6] worked out at 15.2 µg/mL (≈ 31.9 µM).
